Experimental data from patent publication US20190321355A1, “TREATMENT OF MENTAL, MOVEMENT AND BEHAVIORAL DISORDERS” (priority 2016, published 2019).
Where a name gives a salt, the structure may show the parent alone. Read-outs that look alike come from different tables or passages of the source.

Legend:
[1] = tested on: CB2 receptor knockout mice; assay: DOI-induced head twitch response (HTR) in CB2 receptor knockout mice; format: in vivo
Protocol: (§1) • 1. CB2 receptor selective ligands or CB2/SERM ligands were injected intraperitoneally or orally at doses of 0.001 to 100 mg/kg one to two hours before the injection of DOI. In order to test the effect of DOI on head twitch responses, ear scratch and grooming responses, DOI was intraperitoneally injected at a dose of 1 mg/kg.
(§2) After DOI or saline injection, mice were placed in a transparent glass cage 30×40×31 cm divided into squares of 7.5×7.5 cm. Head twitch responses (HTRs) were manually counted by an observer. The HTR in mice is a distinctive behavior that cannot be misplaced with other head movements. After 5 min habitation to the cage the HTR were counted every 3 min for 15 min (a total of 20 min in the cage).
With a view to further study the effect of the MH compositions on repetitive behavior, CB2 receptor knockout mice (The Jackson Laboratory) were intraperitoneally injected at age 3 weeks or 6 weeks with a single dose of MH at 0.2-50 mg/kg or equivalent vehicle. One hour later mice were intraperitoneally injected a single dose of 1 mg/kg DOI or saline. HTR responses, grooming and ESR responses in mice were recorded.
With a view to further study the effect of the HU-308 compositions on repetitive behavior, CB2 receptor knockout mice (The Jackson Laboratory) were intraperitoneally injected at age 3 weeks or 6-21 weeks with a single dose of HU-308 at 0.2-50 mg/kg or equivalent vehicle. One hour later mice were intraperitoneally injected a single dose of 1 mg/kg DOI or saline. HTR responses and ESR responses in mice were recorded.

[2] = tested on: C57BL/6JOlaHsd mice; format: in vivo; settings: for DOI-induced repetitive head twitches: dose not given
[3] = tested on: C57BL/6JOlaHsd mice; assay: DOI-induced ear scratch response (ESR) / urge-like behavior; format: in vivo
Protocol: as §1
(§3) ESR behavior is a measure for urge-like behavior and often preceded HTRs. The ESR is a rapid scratching movement of the head, neck, ears, or other body surfaces by either hindlimbs. The number of ESRs was manually counted. Every ESR was also counted as a grooming. In some experiments, each ESR was considered as a separate episode if the animal moved. In some experiments, each ESR was considered as a separate episode for every ESR.
In order to further study the effect of the MH compositions on repetitive behavior, C57BL/6JOlaHsd mice were intraperitoneally injected at age 3 weeks or 6 weeks with a single dose of MH at 0.2-50 mg/kg or equivalent vehicle. One hour later mice were intraperitoneally injected a single dose of 1 mg/kg DOI or saline. HTR responses and ESR responses in mice were recorded.

[4] = 5 mg/kg during postnatal days 5-13; U.S. Pat. No. 9,486,419; cited from earlier work
[5] = tested on: C57BL/6JOlaHsd mice; assay: Head twitch response after drug alone (saline instead of DOI); format: in vivo
Protocol: as §2
(§4) With a view to further study the effect of the MH compositions on repetitive behavior, C57BL/6JOlaHsd mice were intraperitoneally injected at age 3 weeks or 6 weeks with a single dose of MH at 0.2-50 mg/kg or equivalent vehicle. Optionally, one hour later mice received a single injection of saline (i.e. in the absence of DOI to test the effect of MH alone). HTR responses, ESR and grooming responses in mice were recorded.
With a view to further study the effect of the HU-308 compositions on repetitive behavior, C57BL/6JOlaHsd mice were intraperitoneally injected at age 3 weeks with a single dose of HU-308 at 0.2-50 mg/kg or equivalent vehicle one hour later mice received a single injection of saline (i.e. in the absence of DOI to test the effect of HU-308 alone). HTR responses and ESR responses in mice were recorded.

[6] = tested on: C57BL/6JOlaHsd mice; assay: Marble burying test (compulsive behavior); format: in vivo; settings: age 6 weeks, one hour after a single injection
Protocol: Mice were habituated to the test room for 1 h. A mouse was injected with DOI as above and then placed in the experimental cage (white plastic 36×24.5 ×14.5 cm) filled with 5 cm sawdust for 5 min, in the absence of marbles. The mouse was taken out and twenty black glass were arranged 4 by 5 with 7 cm apart and 1 cm apart from the wells of the cage. Each mouse was tested for its marble burying activity for 30 min. Activity was videotaped with EthoVision and buried marbles were counted manually at the end of the experiment (after 30 min). A marble considered as buried when it was sawdust-covered by two third of its volume. Marbles that were moved were also counted.
With a view to study the effect of the JTE-907 and M1 compositions on repetitive behavior, C57BL/6JOlaHsd mice were intraperitoneally injected at age 6 weeks with a single dose of JTE-907 at 0.2-50 mg/kg, M1 at 0.2-50 mg/kg or equivalent vehicle. The number of buried marbles in the burying marble test by each mouse was recorded.

[7] = molecular target: CB2 receptor (Homo sapiens, UniProt P34972); settings: Schuehly et al. 2011; read-out: Ki, CB2 receptor ligand; cited from earlier work
CB2 receptor, sequence (P34972 whole entry): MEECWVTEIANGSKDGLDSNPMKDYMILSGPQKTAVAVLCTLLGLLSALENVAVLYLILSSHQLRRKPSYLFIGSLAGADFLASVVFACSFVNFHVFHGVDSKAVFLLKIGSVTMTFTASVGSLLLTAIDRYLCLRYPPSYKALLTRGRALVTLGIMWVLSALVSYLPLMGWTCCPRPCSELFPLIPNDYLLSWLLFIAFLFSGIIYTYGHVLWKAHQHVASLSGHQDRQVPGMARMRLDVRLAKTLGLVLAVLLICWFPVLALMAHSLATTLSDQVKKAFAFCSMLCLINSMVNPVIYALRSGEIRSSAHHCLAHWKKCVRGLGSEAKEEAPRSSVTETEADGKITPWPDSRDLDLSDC

[8] = tested on: C57BL/6JOlaHsd mice; assay: ESR/grooming (urge-like response) after drug alone; format: in vivo; settings: doses 1-20 mg/kg i.p., age 6 weeks, no DOI
From the text: as §3
Grooming behavior is a measure for anxiety. Grooming behavior in mice is characterized by licking its fur, groom with the forepaws, or scratch with any limb. Often the mouse will mix all of these grooming behaviors. The number of grooms was manually counted. In some experiments, each grooming behavior was considered as a separate episode if the animal moved its hindlimbs. In some experiments, each grooming behavior was considered as a separate episode for every grooming behavior.
as §4

[9] = tested on: Sabra mice; assay: Ultrasonic vocals, SR141716A-induced vocal tic-like behavior; format: in vivo
[10] = 0.2 mg/kg i.p., age 3 weeks, one hour before DOI
[11] = 5 mg/kg i.p., age 3 weeks, one hour before DOI 1 mg/kg
[12] = 10 mg/kg i.p. single dose, age 3 weeks, one hour before DOI 1 mg/kg i.p.

Which results are given for COc1cc(CC(C)N)c(OC)cc1I.Cl (single isomer, unassigned; (-)) [DOI, (−)-1-(2,5-dimethoxy-4-iodophenyl)-2-aminopropane hydrochloride]?
HTR frequency in CB2 receptor knockout mice after DOI ([1]; DOI 1 mg/kg i.p., age 6 weeks): increased; HTR frequency, model mice (DOI) vs control mice ([2]; DOI 1 mg/kg i.p., age 3 weeks): increased; ESR frequency, DOI vs control mice ([3]; DOI 1 mg/kg i.p.): increased

Which “DOI-induced repetitive head twitches” value [2] does the source give for C=C1CC/C=C(\C)CC[C@@H]2[C@@H]1CC2(C)C [BCP, beta-caryophyllene] here?
The value was “able to reduce”.

Which results are given for CCCCCCC(C)(C)c1cc(OC)c([C@@H]2C=C(CO)[C@@H]3C[C@H]2C3(C)C)c(OC)c1 [HU-308, [(1R,2R,5R)-2-[2,6-dimethoxy-4-(2-methyloctan-2-yl)phenyl]-7,7-dimethyl-4-bicyclo[3.1.1]hept-3-enyl] methanol]?
DOI-induced HTR frequency in CB2 receptor knockout mice ([1]; 5 mg/kg i.p., male, age 6-21 weeks, DOI 1 mg/kg): significantly reduces; motor tics/head twitches at the age of 12 weeks, open field test [4]: induce abnormal motor tics/head twitches; repetitive behavior (HTR), drug alone ([5]; 0.2 mg/kg i.p., age 3 weeks, saline instead of DOI): significantly increased; DOI-induced HTR frequency [2, 10]: reduced; DOI-induced HTR frequency [2, 11]: reduced; DOI-induced repetitive head twitches [2]: able to reduce

Which results are given for CCCCCOc1c(OC)ccc2cc(C(=O)NCc3ccc4c(c3)OCO4)c(=O)[nH]c12 [JTE-907, N-(benzo[1,3]dioxol-5-ylmethyl)-7-methoxy-2-oxo-8-pentyloxy-1,2-dihydroquinoline-3-carboxamide]?
DOI-induced HTR frequency [2, 10]: reduced; DOI-induced HTR frequency [2, 11]: reduced; number of buried marbles ([6]; 5 mg/kg i.p.): reduced

For C=CCc1ccc(O)c(-c2ccc(OC)c(CC=C)c2)c1 [MH, 2-(4-Methoxy-3-prop-2-enylphenyl)-4-prop-2-enylphenol], which Ki [7] is on record?
The Ki was 50 nM.

What about the “DOI-induced HTR frequency in CB2 receptor knockout mice” value ([1]; mouse, in vivo) of the same compound?
Its value is “did not reduce”.

What about the “HTR, drug alone” value ([5]; doses 1-20 mg/kg i.p., age 6 weeks, no DOI) of the same compound?
The value was “did not induce HTR at any dose”.

What about the “DOI-induced HTRs” value ([2]; 1 mg/kg i.p., age 3 weeks, one hour before DOI 1 mg/kg) of the same compound?
The value was “reduced”.

And the “DOI-induced HTRs” value ([2]; 1 mg/kg i.p., age 6 weeks, one hour before DOI 1 mg/kg)?
The value was “reduced”.

What about the “DOI-induced HTR frequency” value ([2]; 1 mg/kg oral (gavage) in self-emulsifying oral formulation, age 3 weeks, two hours before DOI 1 mg/kg i.p.) of the same compound?
The value was “significantly reduced”.

And the “DOI-induced HTR frequency” value [2, 11]?
The value was “reduced”.

And the “DOI-induced HTRs” value ([2]; 5 mg/kg i.p., age 6 weeks, one hour before DOI 1 mg/kg)?
The value was “reduced”.

And the “DOI-induced HTR frequency” value ([2]; 5 mg/kg oral (gavage) in self-emulsifying oral formulation, age 3 weeks, two hours before DOI 1 mg/kg i.p.)?
The value was “significantly reduced”.

And the “effect to reverse DOI-induced HTR, age 3 weeks vs 6 weeks” value ([2]; i.p., after 20 min from DOI injection)?
The value was “higher at age 3 weeks than 6 weeks”.

And the “effect on DOI-induced HTR frequency, 1 mg/kg vs 5 mg/kg” value ([2]; oral formulation, age 3 weeks)?
Its value is “greater than this of 5 mg/kg”.

And the “urge-like response (grooming/ESR), drug alone” value [8]?
Its value is “did not induce urge-like response at any dose”.

And the “number of buried marbles” value ([6]; 10 mg/kg i.p.)?
Its value is “reduced”.

What about the “vocal tic-like behavior (number of ultrasonic vocal events)” value ([9]; SR141716A 5 mg/kg s.c. postnatal day 1-3, drug s.c. at age 13 days, one hour before recording) of the same compound?
Its value is “significantly reduces”.

What about the “frequency of DOI-induced ESR behavior” value ([3]; i.p., one hour before DOI 1 mg/kg) of the same compound?
Its value is “reduced”.

For Cc1c(C(=O)NN2CCCCC2)nn(-c2ccc(Cl)cc2Cl)c1-c1ccc(Cl)cc1 [SR141716A], which “vocalization vs control litter mates” value ([9]; administered to mice pups at the age of one to two days) is on record?
Its value is “higher level of vocalization and/or higher number of vocals”.

With CCN(CC)CCOc1ccc(C(=C(Cl)c2ccccc2)c2ccccc2)cc1 [clomiphene citrate] as the compound, how does the “DOI-induced HTR frequency” value [2, 12] read?
The value was “did not significantly reverse”.

Which “DOI-induced HTR frequency” value [2, 12] does the source give for O=C(c1ccc(OCCN2CCCCC2)cc1)c1c(-c2ccc(O)cc2)sc2cc(O)ccc12 [raloxifene] here?
The value was “reduced”.
